Structures can show the parent of a compound that is named as a salt.
melting point: 182 to 183 °C
SMILES: Cc1nc2cc(-c3ccc4nc(CCN5CCC[C@H]5C)ccc4c3)ccc2s1 (as salt: hydrochloride) [Example 14, 6-(2-Methyl-benzothiazol-5-yl)-2-[2-(2R-methyl-pyrrolidin-1-yl)-ethyl]-quinoline]

From patent US7205316B2, “Tri- and bi-cyclic heteroaryl histamine-3 receptor ligands” (Abbott Laboratories, priority 2004, dated 2007)
